Results as given in US7875261B2, “Fluorinated resorufin compounds and their application” (Life Technologies Corporation, priority 2003, dated 2011).

Tests used:
[1] = Photostability study (continuous irradiation in a spectrofluorimeter); type: physicochemical; conditions: solutions matched by optical density 0.03 at 560 nm, aqueous buffer pH 9, continuous irradiation at 560 nm
Protocol: For example, solutions of each were matched by optical density (0.03 at 560 nm in aqueous buffer at pH 9), then continuously irradiated in a spectrofluorimeter at 560 nm for 30 minutes. Over the duration of the experiment, resorufin photobleached to a greater extent than any of the fluorinated analogs.

[2] = biological target: T1, Recombinant human cyclooxygenase-2 (COX-2) (Homo sapiens, UniProt P35354); assay: Cyclooxygenase-2 assay; type: biochemical; conditions: 50 μM dye, 100 μM arachidonic acid, 2 μM hemin, 37° C., thirty minutes, FIG. 2
T1 construct: purchased Cayman Chemical
T1 sequence (P35354 18-604): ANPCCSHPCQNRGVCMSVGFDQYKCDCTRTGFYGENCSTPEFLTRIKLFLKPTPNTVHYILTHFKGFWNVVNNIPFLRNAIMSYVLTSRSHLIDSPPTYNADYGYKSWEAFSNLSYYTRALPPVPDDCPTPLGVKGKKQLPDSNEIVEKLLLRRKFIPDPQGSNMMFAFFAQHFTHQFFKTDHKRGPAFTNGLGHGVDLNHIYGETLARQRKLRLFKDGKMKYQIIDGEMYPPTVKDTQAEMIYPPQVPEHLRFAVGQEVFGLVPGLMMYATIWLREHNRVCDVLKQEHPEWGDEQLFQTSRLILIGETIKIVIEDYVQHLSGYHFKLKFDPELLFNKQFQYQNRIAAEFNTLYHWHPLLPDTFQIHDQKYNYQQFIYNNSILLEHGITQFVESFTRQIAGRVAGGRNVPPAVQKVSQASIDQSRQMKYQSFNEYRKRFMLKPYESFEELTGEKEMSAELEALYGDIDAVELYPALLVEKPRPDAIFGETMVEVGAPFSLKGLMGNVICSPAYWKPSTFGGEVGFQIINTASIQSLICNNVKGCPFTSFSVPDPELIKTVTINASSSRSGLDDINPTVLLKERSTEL
Protocol: Amplex Red (Molecular Probes, Inc. A-12222) and Compound 4 were resuspended to 10 mM in dry DMSO. Recombinant human cyclooxygenase-2 (COX-2, from Cayman Chemical) was serially diluted (in triplicate for each dye) two-fold in a 96-well microplate in 50 μl of 100 mM Tris, pH 8.0. 10 μl of 20 μM hemin (a COX-2 cofactor) in 100 mM Tris, pH 8.0 was added to all wells. After a five minute incubation at room temperature to allow the hemin to interact with the COX-2 enzyme, 40 μl of either 125 μM Amplex Red+250 μM arachidonic acid or 125 μM Compound 4+250 μM arachidonic acid in 100 mM Tris, pH 8.0 was added to all wells. The final reagent concentrations in the wells was zero to 50 Units/ml COX-2, 2 μM hemin, 100 μM arachidonic acid, and 50 μM Amplex Red reagent or Compound 4 in 100 μl of 100 mM Tris, pH 8.0.
(§1) The resulting reactions were incubated at 37° C. in the dark for thirty minutes. At that point, the resulting fluorescence was measured on a PerSeptive Biosystems CytoFluor 4000 microtiter plate reader (Framingham, Mass.). The excitation filter was 530 nm (+/−12.5 nm) and the emission filter 590 nm (+/−17.5 nm), with a gain setting of 40.

[3] = biological target: T2, Bovine hemoglobin (Bos taurus, UniProt P01966+P02070); assay: Hemoglobin assay; type: biochemical; conditions: 50 μM dye, 50 μM H2O2, 37° C., thirty minutes, FIG. 3
T2 construct: purchased Sigma H-2500
T2 sequence (P01966 2-142 limits assumed): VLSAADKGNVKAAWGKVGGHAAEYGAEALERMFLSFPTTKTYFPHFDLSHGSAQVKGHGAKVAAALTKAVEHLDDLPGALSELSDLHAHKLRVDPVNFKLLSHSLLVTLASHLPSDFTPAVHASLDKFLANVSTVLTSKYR
T2 sequence (P02070 whole entry): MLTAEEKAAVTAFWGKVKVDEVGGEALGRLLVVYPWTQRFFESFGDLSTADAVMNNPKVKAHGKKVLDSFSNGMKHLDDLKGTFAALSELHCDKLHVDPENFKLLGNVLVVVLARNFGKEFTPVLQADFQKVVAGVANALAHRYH
Protocol: Amplex Red (Molecular Probes Inc. A-12222) and Compound 4 were each resuspended to 10 mM in dry DMSO. Bovine hemoglobin (Sigma, catalog #H-2500) was serially diluted (in triplicate for each dye) two-fold in a 96-well microplate in 50 μl of 50 mM Tris, pH 7.5. 50 μl of either 100 μM Amplex Red+100 μM H2O2 or 100 μM Compound 4+100 μM H2O2 in 50 mM Tris, pH 7.5 was added to all wells. The final reagent concentrations in the wells was zero to 2000 ng/ml bovine hemoglobin, 50 μM H2O2, and 50 μM Amplex Red or Compound 4 in 100 μl of […], pH 7.5.
as §1

[4] = biological target: T3, COX-2 (Mus musculus, UniProt Q05769); assay: Detection of LPS-induced COX-2 activity in RAW 264.7 cell lysate; type: biochemical; conditions: 40 μM dye, 80 μM arachidonic acid, 200,000 lysed cell equivalents, 37° C., twenty minutes, FIG. 7
T3 construct: RAW 264.7 mouse macrophage cells (ATCC # TIB-71) were grown overnight; endogenous in cells; host or cells: RAW 264.7 mouse macrophage cells (ATCC TIB-71), LPS-treated, sonicated lysate
T3 sequence (Q05769 18-604): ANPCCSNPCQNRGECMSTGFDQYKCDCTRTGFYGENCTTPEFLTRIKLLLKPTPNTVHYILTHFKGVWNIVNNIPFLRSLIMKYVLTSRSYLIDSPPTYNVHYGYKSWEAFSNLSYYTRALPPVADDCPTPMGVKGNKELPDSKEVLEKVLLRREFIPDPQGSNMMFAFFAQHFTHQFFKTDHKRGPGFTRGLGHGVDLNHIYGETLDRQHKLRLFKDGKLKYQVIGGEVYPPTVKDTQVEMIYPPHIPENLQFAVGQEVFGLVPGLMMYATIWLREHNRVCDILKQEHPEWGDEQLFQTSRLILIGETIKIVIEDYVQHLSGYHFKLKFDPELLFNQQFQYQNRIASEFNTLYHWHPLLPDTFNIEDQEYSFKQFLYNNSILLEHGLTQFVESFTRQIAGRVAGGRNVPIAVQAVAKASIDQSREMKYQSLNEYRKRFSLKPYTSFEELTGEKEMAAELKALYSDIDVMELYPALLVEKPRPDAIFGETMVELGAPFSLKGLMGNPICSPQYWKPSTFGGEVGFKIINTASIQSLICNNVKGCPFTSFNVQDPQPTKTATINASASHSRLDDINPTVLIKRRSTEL
Protocol: The following morning the old media was removed and replaced with 12 ml fresh, warm, DMEM+10% FBS. To one plate, 12 μl of 100 μg/ml lipopolysaccaride (LPS) from E. coli strain 055:B5 (Sigma, catalog #L2880) in water was added. To the other plate, 12 μl of water alone was added. Both plates were incubated for 8 hours, 37° C., 5% CO2. The cells from each plate were gently resuspended into ice-cold 100 mM Tris, pH 7.5 to 4000 cells/μl (counted by hemocytometer). Both batches of cells were lysed with a probe sonicator for 40 seconds with a 30% duty cycle using power output of 3 on a scale of 1 to 10. 50 μl of the resulting cell lysates were added to a 96-well microplate. […] The plate was incubated at room temperature (˜24° C.) for 10 minutes to allow the COX-2 inhibitor time to inhibit the enzyme.
The resulting reactions were incubated at 37° C. in the dark for twenty minutes. At that point, the resulting fluorescence was measured on a PerSeptive Biosystems CytoFluor 4000 microtiter plate reader (Framingham, Mass.). The excitation filter was 530 nm (+/−12.5 nm) and the emission filter 590 nm (+/−17.5 nm), with a gain setting of 50.

[5] = biological target: T4, horseradish peroxidase (HRP) (Armoracia rusticana, UniProt P00433); assay: Detection of horseradish peroxidase activity at acidic pH; type: biochemical; conditions: for Z-factor: pH 5.5, 50 μM H2O2, 60 minutes at 30° C.; for Lower limit of detection of HRP activity: pH 5.5, dye as reporting fluorogenic substrate
T4 sequence (P00433 31-338): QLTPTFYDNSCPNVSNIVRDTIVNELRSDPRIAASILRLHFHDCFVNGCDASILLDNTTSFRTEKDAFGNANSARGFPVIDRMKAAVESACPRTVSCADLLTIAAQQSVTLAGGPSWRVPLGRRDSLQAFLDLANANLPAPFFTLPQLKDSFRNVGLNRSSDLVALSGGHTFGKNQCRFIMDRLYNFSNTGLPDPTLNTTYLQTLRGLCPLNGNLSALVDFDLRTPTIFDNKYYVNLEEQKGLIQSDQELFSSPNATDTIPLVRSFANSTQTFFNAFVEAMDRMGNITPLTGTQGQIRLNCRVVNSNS
Protocol: A dilution series of horseradish peroxidase (HRP; EC 1.11.1.7) was prepared in 0.1 M sodium acetate, pH 5.5. The enzyme dilutions were added to a CoStar 96-well round bottom plate in 50 μL aliquots. Mixtures containing 100 μM hydrogen peroxide (H2O2), 0.1 M sodium acetate, pH 5.5, and 100 μM Amplex Red or 100 μM Compound 4 were prepared, and reactions were initiated by addition of 50 μL of reagent mixture to the enzyme dilution series. Reactions were done in triplicate, for 60 minutes at 30° C. Fluorescence was measured with a CytoFluor® Series 4000 Multi-Well Plate Reader (PerSeptive Biosystems, Framingham, Mass.), 530+/−12.5 nm excitation, 580+/−25 nm emission. The fluorescent signal was graphed as a function of HRP concentration (See, FIG. 9) and the Z-factor (Table 6) was calculated according to Zhang et al. (1999).

[6] = biological target: T5, Myeloperoxidase (Homo sapiens, UniProt P05164); assay: Detection of myeloperoxidase; type: biochemical; conditions: 125 μM Compound 4, 50 μM hydrogen peroxide, PBS, 37° C.
T5 construct: purchased Sigma M-6908
T5 sequence (P05164 49-745): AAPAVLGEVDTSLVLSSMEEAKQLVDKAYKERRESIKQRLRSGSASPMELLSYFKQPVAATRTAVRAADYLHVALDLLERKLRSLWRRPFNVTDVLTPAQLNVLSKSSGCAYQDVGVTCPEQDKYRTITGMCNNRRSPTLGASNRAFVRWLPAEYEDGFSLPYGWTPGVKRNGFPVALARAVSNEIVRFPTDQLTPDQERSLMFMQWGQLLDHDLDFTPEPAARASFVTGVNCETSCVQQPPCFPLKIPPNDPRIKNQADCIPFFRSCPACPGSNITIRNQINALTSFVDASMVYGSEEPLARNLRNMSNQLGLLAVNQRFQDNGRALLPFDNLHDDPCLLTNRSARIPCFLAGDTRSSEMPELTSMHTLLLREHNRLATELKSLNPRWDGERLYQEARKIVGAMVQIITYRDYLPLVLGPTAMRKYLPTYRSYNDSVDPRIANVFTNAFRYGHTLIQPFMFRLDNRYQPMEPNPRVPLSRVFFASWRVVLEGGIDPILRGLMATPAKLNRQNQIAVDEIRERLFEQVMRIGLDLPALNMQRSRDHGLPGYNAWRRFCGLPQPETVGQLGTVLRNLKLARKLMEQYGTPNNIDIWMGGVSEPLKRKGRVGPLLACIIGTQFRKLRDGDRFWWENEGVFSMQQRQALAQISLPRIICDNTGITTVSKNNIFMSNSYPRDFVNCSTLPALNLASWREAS
Protocol: Myeloperoxidase (Sigma # M-6908) was diluted to 1 unit/mL using phosphate buffered saline (PBS, 50 mM sodium phosphate, pH 7.4, 150 mM sodium chloride). The solution was then serially diluted two fold using the same buffer. 50 μL of the preparations were added in a 96-well microplate (Nunc # 449824). 20 μL of 625 μM Compound 4 and 30 μl of 165 μM hydrogen peroxide (Aldrich # 323381) in PBS were added to all wells. The final reagent concentration in the wells was zero to 0.5 U/mL myeloperoxidase, 125 μM Compound 4 and 50 μM hydrogen peroxide in 100 μl of PBS.
The resulting reactions were incubated at 37° C. in a PerSeptive Biosystems CytoFluor 4000 microtiter plate reader (Framingham, Mass.). The excitation filter was 530 nm (+/−12.5 nm) and the emission filter 580 nm (+/−25 nm), with a gain setting of 35. Fluorescence was read every five minutes for up to 30 minutes.

Q: For `O=c1ccc2nc3cc(F)c(O)cc3oc-2c1` [Compound 7], which “Fluorescence remaining after irradiation for 30 minutes at 560 nm” value (“Fluorescence remaining after irradiation” below) [1] is on record?
A: The value was 94%.

Q: With `O=c1ccc2nc3ccc(O)cc3oc-2c1` [resorufin] as the compound, how does the “Fluorescence remaining after irradiation” value [1] read?
A: The value was 91%.

Q: Which “Fluorescence remaining after irradiation” value [1] does the source give for `O=c1ccc2nc3c(F)cc(O)cc3oc-2c1` [Compound 8] here?
A: The value was 95%.

Q: With `O=c1ccc2nc3c(F)c(F)c(O)c(F)c3oc-2c1` [Compound 9] as the compound, how does the “Fluorescence remaining after irradiation” value [1] read?
A: The value was 98%.

Q: With `CC(=O)N1c2cc(F)c(O)cc2Oc2cc(O)c(F)cc21` [Compound 4, 2,8-Difluoro-10-acetyl-3,7-dihydroxyphenoxazine] as the compound, how does the “Fluorescent signal compared with Amplex Red” value [2] read?
A: Its value is “greater fluorescent intensity signal”.

Q: And the “Fluorescence brightness compared with Amplex Red” value [3]?
A: Its value is “brighter”.

Q: And the “Relative fluorescent signal compared with Amplex Red” value [4]?
A: Its value is “stronger relative fluorescent signal”.

Q: And the Z-factor ([5]; HRP 0.016 units/mL)?
A: Its Z-factor is 0.72.

Q: What about the Z-factor ([5]; HRP 0.032 units/mL) of the same compound?
A: Its Z-factor is 0.89.

Q: And the Z-factor ([5]; HRP 0.063 units/mL)?
A: Its Z-factor is 0.90.

Q: What about the Z-factor ([5]; HRP 0.125 units/mL) of the same compound?
A: The Z-factor was 0.81.

Q: What about the Z-factor ([5]; HRP 0.25 units/mL) of the same compound?
A: Its Z-factor is 0.89.

Q: What about the “Signal strength and dynamic range compared with Amplex Red” value ([5]; pH 5.5, FIG. 9) of the same compound?
A: The value was “significantly greater”.

Q: What about the “Lower limit of detection of HRP activity” value [5] of the same compound?
A: Its value is “less than 0.016 units/mL”.

Q: What about the “Limit of detection of myeloperoxidase” value [6] of the same compound?
A: The value was “about 9.6 ng/mL”.

Q: What about the “Limit of detection of myeloperoxidase” value ([6]; FIG. 10) of the same compound?
A: Its value is 0.0078 U/mL.

Q: Which Z-factor ([5]; HRP 0.016 units/mL) does the source give for `CC(=O)N1c2ccc(O)cc2Oc2cc(O)ccc21` [Amplex Red, reference compound] here?
A: Its Z-factor is 1.30.

Q: What about the Z-factor ([5]; HRP 0.063 units/mL) of the same compound?
A: Its Z-factor is 0.51.

Q: What about the Z-factor ([5]; HRP 0.125 units/mL) of the same compound?
A: The Z-factor was 0.69.

Q: What about the Z-factor ([5]; HRP 0.25 units/mL) of the same compound?
A: Its Z-factor is 0.85.

Q: And the “Lower limit of detection of HRP activity” value [5]?
A: Its value is 0.032 units/mL.

Q: With `O=c1ccc2nc3ccc(O)c(F)c3oc-2c1` [Compound 6] as the compound, how does the “Fluorescence remaining after irradiation” value [1] read?
A: The value was 97%.

Q: With `O=c1ccc2nc3cc(F)c(O)c(F)c3oc-2c1` [Compound 5] as the compound, how does the “Fluorescence remaining after irradiation” value [1] read?
A: Its value is 96%.
